Literature values in US20070010426A1, “Composition for preventing and treating cardiovascular disorders” (Maxluck Biotechnology Corp., priority 2005, published 2007).

Tested on: obese mouse

In the case of chromium picolinate, the “Effect on blood lipids” value is given as “reduce the blood lipids”.
